# Measurements reported in patent publication EP4647082A1, “PHARMACEUTICAL COMPOSITION COMPRISING A CGRP RECEPTOR ANTAGONIST FOR THE TREATMENT OF ACUTE MIGRAINE” (NUVIE BIO, Inc., priority 2024, dated 2025).
# Read-outs that look alike come from different tables or passages of the source. Bridge positions count the residues as written; N and C are the ends. Square brackets hold non-standard residues; d marks the D form. Peptide text beside a SMILES is read from it. * marks the point of attachment. Phe(2-CONH2) = NC(=O)c1ccccc1C[C@H](N)C(=O)O; Orn(iPr) = CC(C)NCCC[C@H](N)C(=O)O; Oxazole2carbonyl = O=C(c1ncco1)*; 3Pal = N[C@@H](Cc1cccnc1)C(=O)O
# Test: Phase I first-in-human study, pharmacokinetics after single ascending subcutaneous doses in healthy volunteers
# Type: in vivo
# Details: for AUC(0-inf) / AUC(0-t) / CL/F / Cmax / Tmax / half-life / level at 1 h / level at 2 h / level at 3 h / level at 0.08 h / level at 0.17 h / level at 0.25 h / level at 0.33 h / level at 0.5 h / level at 0.75 h / level at 4 h / level at 6 h / level at 8 h: human, plasma, mean; for level at 1 h: nominal time 1 h; for level at 1 h / level at 2 h / level at 3 h / level at 0.08 h / level at 0.17 h / level at 0.25 h / level at 0.33 h / level at 0.5 h / level at 0.75 h / level at 4 h / level at 6 h / level at 8 h: read-out: Plasma Concentration AXN-001; for level at 2 h: nominal time 2 h; for level at 3 h: nominal time 3 h; for level at 0.08 h: nominal time 0.08 h; for level at 0.17 h: nominal time 0.17 h; for level at 0.25 h: nominal time 0.25 h; for level at 0.33 h: nominal time 0.33 h; for level at 0.5 h: nominal time 0.50 h; for level at 0.75 h: nominal time 0.75 h; for level at 4 h: nominal time 4 h; for level at 6 h: nominal time 6 h; for level at 8 h: nominal time 8 h
# Procedure: For Phase I clinical studies, the 32 mg/mL pharmaceutical composition was dosed subcutaneously. The Phase I clinical trial was a randomised, double-blind, placebo-controlled, first-in-human study of the safety, tolerability and pharmacokinetics of AXN-001 in healthy volunteers under Protocol No. AXN-001-01 .
# The pharmacokinetic objective of the clinical trial was to provide pharmacokinetic analysis of AXN-001 following single ascending subcutaneous doses of AXN-001. The study design included the following Cohorts: • Cohort 1: Dose 1 mg (2 mg/mL formulation); • Cohort 2: Dose 2 mg (4 mg/mL formulation); • Cohort 3: Dose 4 mg (8 mg/mL formulation); • Cohort 4: Dose 8 mg (16 mg/mL formulation); • Cohort 5: Dose 16 mg (32 mg/mL formulation).
# Participants were administered a single dose (0.5 mL) of AXN-001 or placebo via subcutaneous (SC) injection into the abdomen. Blood samples were collected at specified time points for pharmacokinetic analysis (5,10,15,20,30,45,60 minutes; 2,3,4,6,8,12,24 hours). Individual plasma concentrations of ANX-001 were determined and used for analyses.
# Pharmacokinetic (PK) parameters of AXN-001 were determined using Phoenix WinNonlin version 8.3. All concentrations below the limit of quantification (BLQ) were set to zero for the purpose of the PK analysis. All AUC determinations were made using linear trapezoidal method. The following parameters were determined: Cmax Maximum observed concentration. as read directly from the observed data. Tmax Time to maximum concentration T10nM Time to 10 nM T30nM Time to 30 nM T100nM Time to 100 nM AUC0-t Area under the concentration-time curve from time zero to the time of the last measurable concentration, calculated using linear trapezoidal rule AUC0-inf Area under the concentration-time curve from time zero to infinity, calculated using linear trapezoidal rule %AUCextrap The portion of AUC determined by extrapolation t1/2 Apparent terminal elimination half-life CL/F or CL Total apparent body clearance Vz/F or Vz Apparent volume of distribution λz Terminal elimination rate constant
smiles,measurement,setting,value
"CC(C)NCCC[C@@H]1NC(=O)[C@@H](NC(=O)[C@H](Cc2ccccc2C(N)=O)NC(=O)[C@H](NC(=O)c2ncco2)C(C)C)CSSC[C@@H](C(=O)N[C@@H](Cc2cccnc2)C(N)=O)NC(=O)[C@H](Cc2ccccc2)NC(=O)[C@@H]2CCCN2C(=O)CNC(=O)[C@H](C(C)C)NC(=O)[C@H](CC(=O)O)NC1=O [AXN-001, Oxazole-2-carbonyl-D-Val-Phe(2-Cbm)-c(Cys-Orn (iPr)-Asp-Val-Gly-Pro-Phe-Cys)-3Pal-NH2] (Oxazole2carbonyl-[dV][Phe(2-CONH2)]C[Orn(iPr)]DVGPFC[3Pal]-NH2; disulfide 3-10)",subjects who achieved plasma concentrations of 30nM,1 mg cohort,1 of 6
same,subjects who achieved plasma concentrations of 30nM,2 mg cohort,5 of 6
same,subjects who achieved 100nM plasma concentrations,4 mg cohort,2/5
same,subjects who achieved plasma concentrations of 30nM,"4, 8, and 16 mg cohort",All subjects
same,subjects who achieved 100nM plasma concentrations,8 and 16 mg cohorts,All subjects
same,time to achieve plasma concentrations of 10nM AXN-001,all subjects at all doses (1-16 mg SC),less than 15 minutes
same,AUC(0-inf),single SC dose 1 mg,101 ng·h/mL
same,AUC(0-t),single SC dose 1 mg,96.1 ng·h/mL
same,CL/F,single SC dose 1 mg,167 mL/min
same,Cmax,single SC dose 1 mg,39.5 ng/mL
same,Tmax,single SC dose 1 mg,47.5 min
same,half-life,single SC dose 1 mg,78.6 min
same,level at 1 h,single SC dose 1 mg,35.1 ng/mL
same,level at 2 h,single SC dose 1 mg,22.8 ng/mL
same,level at 3 h,single SC dose 1 mg,13.7 ng/mL
same,AUC(0-inf),single SC dose 2 mg,167 ng·h/mL
same,AUC(0-t),single SC dose 2 mg,159 ng·h/mL
same,CL/F,single SC dose 2 mg,210 mL/min
same,Cmax,single SC dose 2 mg,65 ng/mL
same,Tmax,single SC dose 2 mg,47.5 min
same,half-life,single SC dose 2 mg,81 min
same,level at 0.08 h,single SC dose 2 mg,11.3 ng/mL
same,level at 0.17 h,single SC dose 2 mg,21.6 ng/mL
same,level at 0.25 h,single SC dose 2 mg,31.5 ng/mL
same,level at 0.33 h,single SC dose 2 mg,40.4 ng/mL
same,level at 0.5 h,single SC dose 2 mg,55.7 ng/mL
same,level at 0.75 h,single SC dose 2 mg,62.6 ng/mL
same,level at 1 h,single SC dose 2 mg,60.2 ng/mL
same,level at 2 h,single SC dose 2 mg,38.1 ng/mL
same,level at 3 h,single SC dose 2 mg,21.3 ng/mL
same,level at 4 h,single SC dose 2 mg,11.4 ng/mL
same,level at 6 h,single SC dose 2 mg,4.79 ng/mL
same,level at 8 h,single SC dose 2 mg,0.713 ng/mL
same,AUC(0-inf),single SC dose 4 mg,343 ng·h/mL
same,AUC(0-t),single SC dose 4 mg,337 ng·h/mL
same,CL/F,single SC dose 4 mg,197 mL/min
same,Cmax,single SC dose 4 mg,133 ng/mL
same,Tmax,single SC dose 4 mg,42 min
same,half-life,single SC dose 4 mg,81.6 min
same,level at 0.08 h,single SC dose 4 mg,9.6 ng/mL
same,level at 0.17 h,single SC dose 4 mg,35.3 ng/mL
same,level at 0.25 h,single SC dose 4 mg,71.4 ng/mL
same,level at 0.33 h,single SC dose 4 mg,87.8 ng/mL
same,level at 0.5 h,single SC dose 4 mg,115 ng/mL
same,level at 0.75 h,single SC dose 4 mg,123 ng/mL
same,level at 1 h,single SC dose 4 mg,134 ng/mL
same,level at 2 h,single SC dose 4 mg,82.5 ng/mL
same,level at 3 h,single SC dose 4 mg,44.7 ng/mL
same,level at 4 h,single SC dose 4 mg,23.5 ng/mL
same,level at 6 h,single SC dose 4 mg,8.25 ng/mL
same,level at 8 h,single SC dose 4 mg,3.09 ng/mL
same,AUC(0-inf),single SC dose 8 mg,594 ng·h/mL
same,AUC(0-t),single SC dose 8 mg,585 ng·h/mL
same,CL/F,single SC dose 8 mg,225 mL/min
same,Cmax,single SC dose 8 mg,244 ng/mL
same,Tmax,single SC dose 8 mg,45 min
same,half-life,single SC dose 8 mg,88.2 min
same,level at 0.08 h,single SC dose 8 mg,32.1 ng/mL
same,level at 0.17 h,single SC dose 8 mg,84 ng/mL
same,level at 0.25 h,single SC dose 8 mg,118 ng/mL
same,level at 0.33 h,single SC dose 8 mg,144 ng/mL
same,level at 0.5 h,single SC dose 8 mg,199 ng/mL
same,level at 0.75 h,single SC dose 8 mg,240 ng/mL
same,level at 1 h,single SC dose 8 mg,226 ng/mL
same,level at 2 h,single SC dose 8 mg,136 ng/mL
